Measured values: ChEMBL document CHEMBL1145050, “Discovery of (3S)-amino-(4R)-ethylpiperidinyl quinolones as potent antibacterial agents with a broad spectrum of activity and activity against resistant pathogens” (J Med Chem, 2003)
≈ marks a conversion by molar mass, not a printed value.

What was measured:
[1] = test system: Staphylococcus aureus; assay: Minimum inhibitory concentration against Staphylococcus aureus - methicillin resistant Ciprofloxacin sensitive strain MI300; assay type: functional
[2] = test system: Pseudomonas aeruginosa; assay: Minimum inhibitory concentration against Pseudomonas aeruginosa, strain PS96; assay type: functional
[3] = test system: Staphylococcus aureus; assay: Minimum inhibitory concentration against Staphylococcus aureus - methicillin resistant Ciprofloxacin resistant, strain MI339; assay type: functional
[4] = target: T1, DNA gyrase (Escherichia coli, UniProt P0AES4+P0AES6); assay: Inhibition of Wild Type DNA gyrase Supercoiling Activity in Escherichia coli; assay type: protein-complex assay
[5] = test system: Streptococcus pneumoniae; assay: Minimum inhibitory concentration against Streptococcus pneumoniae - penicillin sensitive, strain STP64; assay type: functional
[6] = test system: Escherichia coli; assay: Minimum inhibitory concentration against Escherichia coli, strain ES142; assay type: functional
[7] = target: T1, DNA gyrase; assay: Inhibition of Quinolone resistant gyrase Supercoiling Activity in Escherichia coli; assay type: protein-complex assay
[8] = test system: Streptococcus pneumoniae; assay: Minimum inhibitory concentration against Streptococcus pneumoniae - penicillin resistant, strain STP51; assay type: functional
[9] = test system: Staphylococcus aureus; assay: Minimum inhibitory concentration against Staphylococcus aureus (Methicillin resistant Ciprofloxacin sensitive) strain MI300; assay type: functional
[10] = test system: Streptococcus pneumoniae; assay: Minimum inhibitory concentration against Streptococcus pneumoniae (Penicillin sensitive) strain STP64; assay type: functional
[11] = test system: Staphylococcus aureus; assay: Minimum inhibitory concentration against Staphylococcus aureus (Methicillin resistant Ciprofloxacin resistant) strain MI339; assay type: functional
[12] = test system: Streptococcus pneumoniae; assay: Minimum inhibitory concentration against Streptococcus pneumoniae (Penicillin resistant) strain STP51; assay type: functional

Structure (SMILES) | MIC [1] [µg/mL] | MIC [2] [µg/mL] | MIC [3] [µg/mL] | IC50 [4] [µM] | MIC [5] [µg/mL] | MIC [6] [µg/mL] | IC50 [7] [µM] | MIC [8] [µg/mL] | MIC [9] [µg/mL] | MIC [10] [µg/mL] | MIC [11] [µg/mL] | MIC [12] [µg/mL]
CC[C@@H]1CCN(c2ccc3c(=O)c(C(=O)O)cn(C4CC4)c3c2Cl)C[C@H]1N | < 0.004 | 0.125 (≈ 0.321 µM) | 0.31 (≈ 0.795 µM) | 4.1 | < 0.004 | < 0.004 | 8.21 |  |  |  |  | 
N[C@H]1CCCN(c2nc3c(cc2F)c(=O)c(C(=O)O)cn3C2CC2)C1 | 2 (≈ 5.77 µM) | 1 (≈ 2.89 µM) | > 4 | 4.62 | 4 (≈ 11.5 µM) | 0.125 (≈ 0.361 µM) | > 296 | 4 (≈ 11.5 µM) |  |  |  | 
O=C(O)c1cn(C2CC2)c2c(Cl)c(N3CCNCC3)ccc2c1=O | 0.25 (≈ 0.719 µM) | 0.5 (≈ 1.44 µM) | 8 (≈ 23 µM) |  | 4 (≈ 11.5 µM) |  |  |  |  |  |  | 
N[C@H]1CCCN(c2ccc3c(=O)c(C(=O)O)cn(C4CC4)c3c2Cl)C1 | 0.016 (≈ 0.0442 µM) | 0.5 (≈ 1.38 µM) | 1 (≈ 2.76 µM) | 8.84 | 0.12 (≈ 0.332 µM) | 0.03 (≈ 0.0829 µM) | 35.4 | < 0.008 |  |  |  | 
CC[C@@H]1CCN(c2c(F)cc3c(=O)c(C(=O)O)cn(C4CC4)c3c2F)C[C@H]1N | 0.006 (≈ 0.0153 µM) | 0.75 (≈ 1.92 µM) | 0.188 (≈ 0.48 µM) | 0.511 | 0.023 (≈ 0.0588 µM) | 0.006 (≈ 0.0153 µM) | 32.7 | 0.012 (≈ 0.0307 µM) |  |  |  | 
COc1c(N2CCC[C@H](N)C2)c(F)cc2c(=O)c(C(=O)O)cn(C3CC3)c12 | 0.031 (≈ 0.0826 µM) | 1 (≈ 2.66 µM) | 0.5 (≈ 1.33 µM) | 4.26 | 0.125 (≈ 0.333 µM) | 0.031 (≈ 0.0826 µM) | 17 | 0.063 (≈ 0.168 µM) |  |  |  | 
COc1c(N2CC[C@@H]([C@@H](C)N)C2)c(F)cc2c(=O)c(C(=O)O)cn(C3CC3)c12 | 0.008 (≈ 0.0205 µM) | 0.25 (≈ 0.642 µM) | 0.016 (≈ 0.0411 µM) |  | 0.008 (≈ 0.0205 µM) | 0.008 (≈ 0.0205 µM) |  | 0.008 (≈ 0.0205 µM) |  |  |  | 
CC[C@@H]1CCN(c2cc3c(cc2F)c(=O)c(C(=O)O)cn3C2CC2)C[C@H]1N | 0.094 (≈ 0.252 µM) | 1.5 (≈ 4.02 µM) | > 3 |  | 0.75 (≈ 2.01 µM) | 0.012 (≈ 0.0321 µM) |  | 0.375 (≈ 1 µM) |  |  |  | 
N[C@H]1CCCN(c2c(F)cc3c(=O)c(C(=O)O)cn(C4CC4)c3c2F)C1 |  | 0.5 (≈ 1.38 µM) |  |  |  | 0.03 (≈ 0.0826 µM) |  |  | 0.13 (≈ 0.358 µM) | 0.06 (≈ 0.165 µM) | 4 (≈ 11 µM) | 0.13 (≈ 0.358 µM)
CC[C@@H]1CCN(c2c(F)cc3c(=O)c(C(=O)O)cn(C4CC4)c3c2OC)C[C@H]1N | 0.008 (≈ 0.0198 µM) | 1 (≈ 2.48 µM) | 0.125 (≈ 0.31 µM) | 7.93 | 0.031 (≈ 0.0768 µM) | 0.016 (≈ 0.0397 µM) | 15.9 | 0.008 (≈ 0.0198 µM) |  |  |  | 
CC[C@H]1CCN(c2ccc3c(=O)c(C(=O)O)cn(C4CC4)c3c2OC)C[C@H]1N | 0.25 (≈ 0.649 µM) | 4 (≈ 10.4 µM) | 4 (≈ 10.4 µM) |  | 1 (≈ 2.59 µM) | 0.125 (≈ 0.324 µM) |  | 0.5 (≈ 1.3 µM) |  |  |  | 
CC[C@@H]1CCN(c2nc3c(cc2F)c(=O)c(C(=O)O)cn3C2CC2)C[C@H]1N | 0.25 (≈ 0.668 µM) | 4 (≈ 10.7 µM) | > 4 | 68.4 | 4 (≈ 10.7 µM) | 0.03 (≈ 0.0801 µM) | > 273 | 2 (≈ 5.34 µM) |  |  |  | 
COc1c(N2CCC[C@H](N)C2)ccc2c(=O)c(C(=O)O)cn(C3CC3)c12 | < 0.06 | 0.5 (≈ 1.4 µM) | 1 (≈ 2.8 µM) | 17.9 | 0.03 (≈ 0.0839 µM) | 0.03 (≈ 0.0839 µM) | 35.8 | < 0.008 |  |  |  | 
CC[C@@H]1CCN(c2ccc3c(=O)c(C(=O)O)cn(C4CC4)c3c2OC)C[C@H]1N | < 0.004 | 1 (≈ 2.59 µM) | 0.25 (≈ 0.649 µM) | 8.3 | < 0.003 | 0.006 (≈ 0.0156 µM) | 33.2 | 0.008 (≈ 0.0208 µM) |  |  |  | 
O=C(O)c1cn(C2CC2)c2cc(N3CCNCC3)c(F)cc2c1=O [CIPROFLOXACIN] | 0.25 (≈ 0.754 µM) | 0.12 (≈ 0.362 µM) |  |  | 0.25 (≈ 0.754 µM) |  |  |  |  |  |  | 
NC1CCN(c2c(F)cc3c(=O)c(C(=O)O)cn(C4CC4)c3c2Cl)C1 (stereo not given) [CLINAFLOXACIN] | 0.03 (≈ 0.082 µM) | 0.06 (≈ 0.164 µM) | 0.5 (≈ 1.37 µM) | 0.547 | 0.03 (≈ 0.082 µM) | 0.015 (≈ 0.041 µM) | 2.73 | 0.15 (≈ 0.41 µM) |  |  |  | 
COc1c(N2CCNC(C)C2)c(F)cc2c(=O)c(C(=O)O)cn(C3CC3)c12 (stereo not given) [GATIFLOXACIN] | 0.06 (≈ 0.16 µM) | 0.12 (≈ 0.32 µM) | 4 (≈ 10.7 µM) |  | 0.12 (≈ 0.32 µM) | 0.015 (≈ 0.04 µM) |  |  |  |  |  | 
